# “Also recorded” adds a separate entry of the source. Like-named read-outs stand apart in the source and are kept apart here.
# Key:
# Type in all cases: binding, human
# Antibodies to HIV-1 [1] = tested on: Antibodies to HIV-1
# Procedure: The subject peptide compositions were immobilized onto latex beads and entrapped on a microporous membrane atop an absorbent material for the determination and/or quantitation of antibodies to HIV. Examples of such immunoassay apparatus and methods are the subject of U.S. Pat. Nos. 4,633,901 and 4,727,019, both incorporated herein by reference. The membrane concentration immunoassay involves three incubations comprising a total assay time of 10 minutes. Peptides tested were adsorbed to latex beads by the methods described above.
# Each sample was tested on a filtration unit comprising three spots on a 1.2 μm pore size nylon membrane. One spot comprising the test peptide/latex bead preparation, one spot comprising a positive procedural control and the other comprising a negative procedural control.
# The peptide/latex bead preparation was suspended in 0.1M Tris buffer, pH 7.2, 0.15M NaCl, 0.01M MgCl2, 10% sucrose, 2% fetal calf serum. Membranes were spotted with a 0.1-0.2% suspension of peptide/bead preparation. Negative procedural control spots were comprised of latex beads coated by adsorption with BSA. While positive procedural control spots were comprised of latex beads coated by adsorption with goat antihuman immunoglobulins.
# Serum or plasma samples (40 μl) were diluted 1:10 in dilution buffer (10% heat inactivated normal goat serum, 1% dextran sulfate, 0.2% Tween 20, 2.5% nonfat dry milk, 15 ppm Kathon CG, 0.005% antifoam A, in 20 mM sodium citrate buffer, pH 7.4). Diluted specimen was added to the surface of the membrane and allowed to absorb completely. After waiting 2 min. from the time of specimen addition, 1 ml of wash buffer (0.01M Tris-buffered saline, pH 6.0, 0.05M NaCl, 0.005M MgCl2, 0.1% sodium azide, 10 μg/ml nitro blue tetrazolium, 0.5M potassium thiocyanate) was added and allowed to completely absorb through the membrane. About 0.150 ml (3 drops) of goat anti-human Ig-alkaline phosphatase conjugate diluted in 10 mM phosphate buffered saline, pH 7.4, 0.2% goat gamma globulin, 1% bovine serum albumin, 1 mM MgCl2, 0.1 mM ZnCl2 was added to the membrane and allowed to absorb completely. The membrane was washed twice as above (2 ml) and about 0.150 ml (3 drops) of substrate (1M 2-amino-2-methyl-1-propanol, pH 10.3, 5 mg/ml 3-indoxyl phosphate) was added and allowed to absorb completely. After about 5 min. about 1 ml of 0.5M EDTA, pH 7.4, was passed through the membrane to stop the reaction. After the stop solution was completely absorbed the units were read visually or semi-quantitatively by reflectance.
# Antibodies to HIV-1 [2] = details: adsorbed on latex beads, absorbance at 405 nm
# Antibodies to HIV-1 [3] = tested on: Antibodies to HIV-1; remark: listed apart in the source
# Procedure: Alternative methods of testing immunologic cross-reactivity were also used. In one such method L5 Peptides 39 and 39GC were tested by ELISA as previously described in U.S. Pat. No. 4,629,783. Briefly, stock solutions of peptides 39 and 39-GC were prepared in 6M Gu-HCl. Working dilutions of 20 µg/ml and 6 μg/ml respectively were prepared by dilution of stock solution 0 with 0.05M carbonate/bicarbonate buffer, pH 9.5. Wells of microtiter plates were filled with 100 μl of the working dilution of the peptides and allowed to stand overnight at room temperature. Coating solution was removed and 300 μl of blocking solution supra containing 0.5M ethanolamine was added for 1 hr. at room temperature. Blocking solution was removed and the plates were used immediately or allowed to dry and stored for later use.
# Plasma samples were diluted (See Table 1) in sample dilution buffer (above) and 100 μl was added to individual wells. Samples were incubated for 30 min. at 37° C., then removed and the wells were washed six times with 0.15M NaCl, 0.05% Tween 20. One hundred microliters of goat antihuman Ig-horseradish peroxidase conjugate diluted in citrate buffer, pH 7.0, 1% normal goat serum was added to each well for 30 min at 37° C. prior to washing six times as above. The ELISA assay was developed by adding 100 μl/well of substrate solution (80 μg/ml tetramethyl benzidine, 0.0015% hydrogen peroxide in citrate/phosphate buffer, pH 6.0) for 30 min. at room temperature. Reactions were stopped with the addition of 100 μl of H2SO4 per well, and the ratio of the optical density at 450 nm to 630 nm was determined by an automated ELISA reader. The cutoff value for a positive result was set at 0.225 Absorbance Units above the average absorbance obtained for three known negative samples.
substance,measurement,setting,value
Cys-Gly-Gly-Arg-Ile-Leu-Ala-Val-Glu-Arg-Tyr-Leu-Lys-Asp-Gln-Gln-Leu-Leu-Gly-Ile-Trp-Gly-Cys*-Ser-Gly-Lys-Leu-Ile-Cys*-NH2 [Peptide 39GC],No. Positive/Total No.,Antibodies to HIV-1 [1]; Autoimmune Samples,0/51
same,No. Positive/Total No.,Antibodies to HIV-1 [1]; Normal Blood Bank Donors,0/1187
same,No. Positive/Total No.,Antibodies to HIV-1 [1]; Problematic HIV-I Seronegative Samples,0/72
same,No. Positive/Total No.,"Antibodies to HIV-1 [1]; Secondary, Atypical Syphillis Sera/HIV Neg.",0/26
same,No. Positive/Total No.,"Antibodies to HIV-1 [1]; Secondary, Atypical Syphillis Sera/HIV Pos.",4/4
same,No. Positive/Total No.,Antibodies to HIV-1 [1]; Western Blot Neg./LAV-EIA Pos.,0/79
same,No. Positive/Total No.,Antibodies to HIV-1 [1]; Western Blot Pos./LAV-EIA Pos. (OD < 1.5),120/120
same,No. Positive/Total No.,Antibodies to HIV-1 [1]; Western Blot Pos./LAV-EIA Pos. (OD > 1.5),29/29
same,No. Positive/Total No.,Antibodies to HIV-1 [1]; Western Blot p25 Neg./LAV/EIA Pos. (Atypical 1),0/39
same,No. Positive/Total No.,Antibodies to HIV-1 [1]; Western Blot p25 Pos./LAV-EIA Pos. (Atypical 2),0/170
same,immunological reactivity compared with Peptide 39,Antibodies to HIV-1 [2],substantial improvement over Peptide 39
same,Diagnosis by ELISA,Antibodies to HIV-1 [3]; PlasmaG (1:40),Pos/Pos
same,ELISA optical density (450 nm/630 nm),Antibodies to HIV-1 [3]; PlasmaG (1:40),0.895
same,Diagnosis by ELISA,Antibodies to HIV-1 [3]; PlasmaG (1:80),Pos
same,ELISA optical density (450 nm/630 nm),Antibodies to HIV-1 [3]; PlasmaG (1:80),0.820
same,Diagnosis by ELISA,Antibodies to HIV-1 [3]; PlasmaG (1:160),Pos
same,ELISA optical density (450 nm/630 nm),Antibodies to HIV-1 [3]; PlasmaG (1:160),0.575
same,Diagnosis by ELISA,Antibodies to HIV-1 [3]; PlasmaG (1:320),Neg/Neg
same,ELISA optical density (450 nm/630 nm),Antibodies to HIV-1 [3]; PlasmaG (1:320),0.349
same,Diagnosis by ELISA,Antibodies to HIV-1 [3]; PlasmaG (1:640),Neg/Neg
same,ELISA optical density (450 nm/630 nm),Antibodies to HIV-1 [3]; PlasmaG (1:640),0.179
same,Diagnosis by ELISA,Antibodies to HIV-1 [3]; PlasmaG (1:1280),Neg/Neg
same,ELISA optical density (450 nm/630 nm),Antibodies to HIV-1 [3]; PlasmaG (1:1280),0.107
same,Diagnosis by ELISA,Antibodies to HIV-1 [3]; PlasmaO (1:40),Pos/Pos
same,ELISA optical density (450 nm/630 nm),Antibodies to HIV-1 [3]; PlasmaO (1:40),1.439
same,Diagnosis by ELISA,Antibodies to HIV-1 [3]; PlasmaO (1:80),Pos/Pos
same,ELISA optical density (450 nm/630 nm),Antibodies to HIV-1 [3]; PlasmaO (1:80),1.010
same,Diagnosis by ELISA,Antibodies to HIV-1 [3]; PlasmaO (1:160),Pos/Pos
same,ELISA optical density (450 nm/630 nm),Antibodies to HIV-1 [3]; PlasmaO (1:160),0.742
same,Diagnosis by ELISA,Antibodies to HIV-1 [3]; PlasmaO (1:320),Pos
same,ELISA optical density (450 nm/630 nm),Antibodies to HIV-1 [3]; PlasmaO (1:320),0.397
same,Diagnosis by ELISA,Antibodies to HIV-1 [3]; PlasmaO (1:640),Neg/Neg
same,ELISA optical density (450 nm/630 nm),Antibodies to HIV-1 [3]; PlasmaO (1:640),0.279
same,Diagnosis by ELISA,Antibodies to HIV-1 [3]; PlasmaO (1:1280),Neg/Neg
same,ELISA optical density (450 nm/630 nm),Antibodies to HIV-1 [3]; PlasmaO (1:1280),0.165
same,"dilution giving a positive result, compared with Peptide 39","Antibodies to HIV-1 [3]; plasma dilution panel, Table 1",positive result at a higher dilution than Peptide 39
same,ELISA optical density,Antibodies to HIV-1 [3]; seroconversion panel sample BBI-1,0.347
same,ELISA optical density,Antibodies to HIV-1 [3]; seroconversion panel sample BBI-2,0.317
same,ELISA optical density,Antibodies to HIV-1 [3]; seroconversion panel sample BBI-3,0.842
same,ELISA optical density,Antibodies to HIV-1 [3]; seroconversion panel sample BBI-4,1.105
same,ELISA optical density,Antibodies to HIV-1 [3]; seroconversion panel sample BBI-5,1.757
same,ELISA optical density,Antibodies to HIV-1 [3]; seroconversion panel sample BBI-6,2.160
same,ELISA optical density,Antibodies to HIV-1 [3]; seroconversion panel sample BBI-7,1.986
same,ELISA optical density,Antibodies to HIV-1 [3]; seroconversion panel sample BBI-8,2.317
same,ELISA optical density,Antibodies to HIV-1 [3]; seroconversion panel sample BBI-9,2.328
same,ELISA optical density,Antibodies to HIV-1 [3]; seroconversion panel sample BBI-20,0.136
same,ELISA optical density,Antibodies to HIV-1 [3]; seroconversion panel sample BBI-21,0.158
same,ELISA optical density,Antibodies to HIV-1 [3]; seroconversion panel sample BBI-22,0.450
same,ELISA optical density,Antibodies to HIV-1 [3]; seroconversion panel sample BBI-23,0.890
same,ELISA optical density,Antibodies to HIV-1 [3]; seroconversion panel sample BBI-24,1.064
same,ELISA optical density,Antibodies to HIV-1 [3]; seroconversion panel sample BBI-25,0.845
same,ELISA optical density,Antibodies to HIV-1 [3]; seroconversion panel sample BBI-26,0.852
same,ELISA optical density,Antibodies to HIV-1 [3]; seroconversion panel sample BBI-27,1.104
same,ELISA optical density,Antibodies to HIV-1 [3]; seroconversion panel sample BBI-28,1.177
same,ELISA optical density,Antibodies to HIV-1 [3]; seroconversion panel sample BBI-29,2.085
same,ELISA optical density,Antibodies to HIV-1 [3]; seroconversion panel sample BBI-30,2.214
same,ELISA optical density,Antibodies to HIV-1 [3]; seroconversion panel sample BBI-31,2.207
same,ELISA optical density,Antibodies to HIV-1 [3]; seroconversion panel sample BBI-32,2.263
same,ELISA optical density,Antibodies to HIV-1 [3]; seroconversion panel sample BBI-33,2.277
same,ELISA optical density,Antibodies to HIV-1 [3]; seroconversion panel sample BBI-34,1.622
same,ELISA optical density,Antibodies to HIV-1 [3]; seroconversion panel sample BBI-35,2.198
same,ELISA optical density,Antibodies to HIV-1 [3]; seroconversion panel sample BBI-36,2.265
same,ELISA optical density,Antibodies to HIV-1 [3]; seroconversion panel sample BBI-37,2.105
same,time of first positive result on seroconversion panels,"Antibodies to HIV-1 [3]; two seroconversion panels, Table 4",positive result earlier than whole virus ELISA; also recorded: positive result earlier than peptide 39 on one of the seroconversion panels

# Source: patent US20030215788A1, “Cysteine thiol-protected peptides for use in immunoassays” (priority 1989, published 2003)
